Data: PubChem BioAssay (NCI)
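Interpolation was linear, between the two tested concentrations surrounding the appropriate level; five concentrations were tested over 48 hours in 96-well plates. TGI denotes the concentration required for complete inhibition of growth.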

Legend:
Assay in all cases: NCI anticancer screen, dose series, 48 h
[1] = tested on: 786-0 renal
[2] = tested on: A498 renal
[3] = tested on: A549 NSCLC
[4] = tested on: ACHN renal
[5] = tested on: BT-549 breast
[6] = tested on: CAKI-1 renal
[7] = tested on: COLO 205 colon
[8] = tested on: DU-145 prostate
[9] = tested on: EKVX NSCLC
[10] = tested on: HCC-2998 colon
[11] = tested on: HCT-116 colon
[12] = tested on: HCT-15 colon
[13] = tested on: HL-60(TB) leukemia
[14] = tested on: HOP-62 NSCLC
[15] = tested on: HOP-92 NSCLC
[16] = tested on: HS 578T breast
[17] = tested on: HT29 colon
[18] = tested on: IGROV1 ovarian
[19] = tested on: K-562 leukemia
[20] = tested on: KM12 colon
[21] = tested on: LOX IMVI melanoma
[22] = tested on: M14 melanoma
[23] = tested on: MCF7 breast
[24] = tested on: MDA-MB-231 breast
[25] = tested on: MDA-MB-435
[26] = tested on: MDA-N
[27] = tested on: MOLT-4 leukemia
[28] = tested on: NCI-H226 lung
[29] = tested on: NCI-H23 lung
[30] = tested on: NCI-H460 lung
[31] = tested on: NCI-H522 lung
[32] = tested on: NCI/ADR-RES ovarian
[33] = tested on: OVCAR-3 ovarian
[34] = tested on: OVCAR-4 ovarian
[35] = tested on: OVCAR-5 ovarian
[36] = tested on: OVCAR-8 ovarian
[37] = tested on: PC-3 prostate
[38] = tested on: RPMI-8226 leukemia
[39] = tested on: RXF 393 renal
[40] = tested on: SF-268 CNS
[41] = tested on: SF-295 CNS
[42] = tested on: SF-539 CNS
[43] = tested on: SK-MEL-2 melanoma
[44] = tested on: SK-MEL-28 melanoma
[45] = tested on: SK-MEL-5 melanoma
[46] = tested on: SK-OV-3 ovarian
[47] = tested on: SN12C renal
[48] = tested on: SNB-19 CNS
[49] = tested on: SNB-75 CNS
[50] = tested on: SR leukemia
[51] = tested on: SW-620 colon
[52] = tested on: T-47D breast
[53] = tested on: TK-10 renal
[54] = tested on: U251 CNS
[55] = tested on: UACC-257 melanoma
[56] = tested on: UACC-62 melanoma
[57] = tested on: UO-31 renal
[58] = tested on: CCRF-CEM leukemia
[59] = tested on: MALME-3M melanoma

COc1cc2ccc(/C=C\[N+](=O)[O-])cc2cc1OC
TGI [1]: 3.09 µM
TGI [2]: 29.1 µM
TGI [3]: 29.8 µM
TGI [4]: 3.2 µM
TGI [5]: 5.74 µM
TGI [6]: 20 µM
TGI [7]: 15.9 µM
TGI [8]: 4.39 µM
TGI [9]: 15.5 µM
TGI [10]: 13.6 µM
TGI [11]: 5.16 µM
TGI [12]: 17.2 µM
TGI [13]: 5.07 µM
TGI [14]: 16.1 µM
TGI [15]: 10.1 µM
TGI [16]: 37.8 µM
TGI [17]: 4 µM
TGI [18]: 3.92 µM
TGI [19]: > 24.6 µM
TGI [20]: 19.3 µM
TGI [21]: 3.42 µM
TGI [22]: 7.41 µM
TGI [23]: 7.06 µM
TGI [24]: 9.02 µM
TGI [25]: 7.63 µM
TGI [26]: 5.78 µM
TGI [27]: 19.1 µM
TGI [28]: 76.5 µM
TGI [29]: 6.98 µM
TGI [30]: > 56.4 µM
TGI [31]: 3.4 µM
TGI [32]: 17.2 µM
TGI [33]: 18.1 µM
TGI [34]: 7.56 µM
TGI [35]: 30.3 µM
TGI [36]: 9.72 µM
TGI [37]: 7.28 µM
TGI [38]: 5.44 µM
TGI [39]: 3.51 µM
TGI [40]: 11 µM
TGI [41]: 33.8 µM
TGI [42]: 4.91 µM
TGI [43]: 9.43 µM
TGI [44]: 7.51 µM
TGI [45]: 17.5 µM
TGI [46]: 28.4 µM
TGI [47]: 6.3 µM
TGI [48]: 27.7 µM
TGI [49]: 5.76 µM
TGI [50]: 5.28 µM
TGI [51]: > 24.6 µM
TGI [52]: 12.5 µM
TGI [53]: 9.01 µM
TGI [54]: 9.87 µM
TGI [55]: > 22.9 µM
TGI [56]: 21.7 µM
TGI [57]: 3.36 µM

O=C(O)c1cc([N+](=O)[O-])cc2c(=O)c3cnccc3[nH]c12
TGI [2]: > 100 µM
TGI [5]: > 100 µM
TGI [6]: > 100 µM
TGI [58]: > 100 µM
TGI [7]: > 100 µM
TGI [8]: > 100 µM
TGI [10]: > 100 µM
TGI [11]: > 100 µM
TGI [12]: > 100 µM
TGI [13]: > 100 µM
TGI [14]: > 100 µM
TGI [16]: > 100 µM
TGI [17]: > 100 µM
TGI [18]: > 100 µM
TGI [19]: > 100 µM
TGI [20]: > 100 µM
TGI [22]: > 100 µM
TGI [59]: > 100 µM
TGI [23]: > 100 µM
TGI [24]: > 100 µM
TGI [25]: > 100 µM
TGI [26]: > 100 µM
TGI [27]: > 100 µM
TGI [28]: > 100 µM
TGI [29]: > 100 µM
TGI [30]: > 100 µM
TGI [31]: > 100 µM
TGI [32]: > 100 µM
TGI [33]: > 100 µM
TGI [34]: > 100 µM
TGI [35]: > 100 µM
TGI [36]: > 100 µM
TGI [37]: > 100 µM
TGI [38]: > 100 µM
TGI [39]: > 100 µM
TGI [41]: > 100 µM
TGI [43]: > 100 µM
TGI [44]: > 100 µM
TGI [45]: > 100 µM
TGI [46]: > 100 µM
TGI [47]: > 100 µM
TGI [48]: > 100 µM
TGI [49]: > 100 µM
TGI [50]: > 100 µM
TGI [52]: > 100 µM
TGI [54]: > 100 µM
TGI [56]: > 100 µM
TGI [57]: > 100 µM
